Laboratory results from patent US11324217B2, “Preparation method and application of polyketides bearing the trans-fused decalin skeleton” (QINGDAO AGRICULTURAL UNIVERSITY, priority 2019, dated 2022).

Assays:
[1] = system: Echinochloa crusgalli seedlings; experiment: Herbicidal activity test (PPA method), growth inhibition of radicles of weed seedlings; format: in vivo; conditions: Echinochloa crus-galli, 48 h, radicle length after 2 days in agar, read-out: Growth inhibition rates (%) to radicles of Echinochloa crusgalli seedlings; for inhibition at 2.5 µg/mL: 2.5 μg/mL; for inhibition at 5 µg/mL: 5 μg/mL; for inhibition at 10 µg/mL: 10 μg/mL
From the text: The method of grinded plant tissue powder mixed with agar (PPA method), established by Luo Xiaoyong, et al. (Journal of Qingdao Agricultural University, 2007, 24: 267-270) is used to quickly determine the herbicidal activity of compounds. It has the advantages of high sensitivity, easy operation, good repeatability, and large-throughput screening. It is also easy to observe the growth status of indicator plants. Luo Xiaoyong used this method to quickly determine the herbicidal activity of the leaves of 40 garden plants. Zhang Lijuan (Plant Protection, 2016, 42: 63-66) and Su Fansheng (Applied Chemistry, 2014, 31: 290-295) quickly determined the herbicidal activity of corn stalks and imidazole compounds by the PPA method with Echinochloa crusgalli as the test weed. Zhang Yun (Journal of Microbiology, 2015, 55: 292-298) and Li Shuai (Journal of Agricultural and Food Chemistry, 2014, 62: 8997-9001) studied the inhibitory effect of microbial secondary metabolites on the root growth of Amaranthus retroflexus by using Amaranthus retroflexus as the test weed.
Weed seeds were first sterilized with 0.2% sodium hypochlorite for 15 min, then washed repeatedly with sterile distilled water, soaked for 4-6 h, and germinated for 12 h in a medical tray with sterile wet filter paper in a dark place.
The compound to be tested was dissolved in dimethyl sulfoxide (DMSO) to obtain a 4 mg/mL solution, and the 4 mg/mL solution was then diluted with 50% DMSO aqueous solution to different concentrations for later use.
1 mL of the sample solution and 99 mL of sterile agar aqueous solution were mixed well, and poured into three 25 mL small beakers to be condensed. Needle-nose tweezers were used to insert 5 small holes on the surface of the condensed agar, the germinated test weed seedlings with 4-5 radicles were clamped separately and inserted gently and vertically into the small holes. Each beaker had five pieces of such agar and the operation was repeated for three times. Then, all beakers were sealed with tin foil and placed in a sterilized small carton, and the sterilized small carton was then placed in an artificial climate box for shading culture for 2 days. The artificial climate box set an automatic cycle of 14 h lighting (25° C.) and 10 h shading (20° C.), and the relative humidity in the box was set at 60%. After 2 days, the lengths of the radicle and hypocotyl were investigated to calculate the weed growth inhibition rate.
The calculation equations were as follows (Chinese Agricultural Science Bulletin, 2013, 29: 177-182): Growth=length of radicle (hypocotyl) after treatment−length of radicle (hypocotyl) before treatment; Inhibition rate (%)=[(average growth of control−average growth of treatment)/average growth of control]×100%.

Brine shrimp = experiment: Lethal activity of Brine shrimp; format: in vivo; conditions: concentration of 500 μg/mL; 24 h incubation at room temperature
Experimental: Brine shrimp is an aquatic animal that is highly sensitive to toxic substances. It can be used as a model organism to preliminary evaluate the toxic effects of compounds on the environment. Masi, M. et al. used Brine shrimp to preliminary evaluate the toxicity of the herbicidal active compounds Colletochlorins E and F (Journal of Agricultural and Food Chemistry, 2017, 65: 1124-1130).
100 mg of Brine shrimp eggs were placed in a 500 mL beaker, 400 mL of artificial seawater was added, the Brine shrimp eggs were slowly inflated with an air pump and hatched at room temperature for 24 h, the egg shells and unhatched eggs were removed, and the Brine shrimps were further incubated for 24 h.
The compound to be tested was dissolved in DMSO to obtain a 20 mg/mL mother liquor, and the mother liquor was then sequentially diluted twice to obtain 10, 5 and 2.5 mg/mL solutions for later use.
195 μL of artificial seawater containing 10-15 Brine shrimps were added into each well of a 96-well cell culture plate to make a test culture plate. […] After incubation at room temperature for 24 h, the number of Brine shrimp deaths was counted under a binocular dissecting microscope. […]

Structure (SMILES)	inhibition at 2.5 µg/mL [1]	inhibition at 5 µg/mL [1]	inhibition at 10 µg/mL [1]	lethal activity of Brine shrimp (Brine shrimp)
CCOCN(C(=O)CCl)c1c(C)cccc1CC [Acetochlor, reference compound]	54.8 ± 1.3%	65.6 ± 1.8%	76.1 ± 1.4%	–
CC1=C[C@H](O)[C@H]2C[C@@H](C)CC[C@@H]2[C@@]1(C)C(=O)CCO [Compound 1]	52.7 ± 1%	64.7 ± 0.9%	81.5%	do not exhibit the lethal activity
C[C@H]1CC[C@H]2[C@@H](C=C[C@@](C)(O)[C@]2(C)C(=O)CCOC(=O)Cc2ccc(O)c(O)c2)C1 [Compound 2]	41 ± 0.8%	55.4 ± 1.2%	79.6%	do not exhibit the lethal activity
